“Also recorded” adds a separate entry of the source. Like-named read-outs stand apart in the source and are kept apart here.
What was measured:
[1] = system: tail bleeding in mice; conditions: mice treated with ASA, previously seen (Decouture et al. 2019); cited from earlier work
[2] = system: human whole blood; assay: VWF recovery experiment in 10 mM NAC treated blood, microfluidic system; format: cell-based
Procedure: VWF recovery experiments were performed using 3 individual's 10 mM NAC samples prepped as detailed above. 19 IU/mL of VWF (Humate) was added to these samples and they were immediately perfused through the microfluidic system. Occlusion times and platelet intensities were measured as above.
To test if the NAC prevented arterial thrombosis by modifying VWF as hypothesized, new VWF was added to blood samples treated with 10 mM NAC. […] Although OTs of the recovery samples were higher than the control, the average RPA rates for the control and recovery conditions were similar. By shifting the control curve right, simulating a 76 s increase in lag time, the two curves show a high degree of concordance (FIG. 9).

[3] = Elimination of NAC from mouse plasma (literature); format: in vivo; conditions: calculated from half-life of 34 minutes
[4] = Olsson et al. 1988; cited from earlier work
[5] = system: platelet aggregation in human whole blood; assay: Brightfield platelet intensity (lag time, rapid platelet accumulation rate) in the microfluidic model; format: cell-based
Procedure: (§1) For each chip, the mass flow rate of each outlet channel and brightfield images of two stenotic regions were acquired. Mass flow rates for each channel were measured using four mass balances (Ohaus Scout) connected to the device outlets. Occlusion time was defined as the difference between the time blood enters the stenosis region of the microfluidic device and the time when the mass balances register their peak mass. A brightfield, upright microscope (Leica DM6000B) was used in conjunction with a CCD camera (Pixelfly, PCO) to image the stenotic regions of the middle two channels as the occlusive thrombus formed. Images were taken once per second with a 40× magnification. These images were later thresholded into black and white images to identify platelet rich thrombi from the background blood (ImageJ). Average platelet intensity is defined as the average B/W value of the stenosis region. A value of 0 represents a clean channel with no platelets and increasing values indicate platelet accumulation.
(§2) Occlusion times for each concentration were tested using an unpaired Student's t-test. For survival curves, each possible combinations of pairs of concentrations were tested using a log-rank test. Visual measurement of platelet intensities for each concentration were compared using a Mann-Whitney U test. Statistical significance was determined by p<0.05.
(§3) N-acetyl cysteine was added to blood to create final concentrations of 3 mM, 5 mM and 10 mM. For each human subject, a fresh solution of concentrated NAC (Sigma Aldrich) was created in PBS and neutralized to a pH of 7 with NaOH. The concentrated NAC solution was then diluted so that the same volume of NAC solutions was added to each sample. Negative control (OmM) samples were similarly diluted with 0.5 mL of PBS in 15 mL blood. In three individuals, additional experiments were performed at concentrations of 7.5 mM, 20 mM and 40 mM. For all experiments, NAC was allowed to incubate in the blood at room temperature on a shaker for 30 minutes prior to testing.
Brightfield measurements of platelet aggregation were used to establish whether the increase in occlusion time observed in 3 mM and 5 mM cases is primarily due to effects on initial platelet attachment (lag time) or the platelet accumulation rate (RPA). Lag time is defined as the time required for the average platelet intensity measurements to increase to 1% of their maximal value. Average lag times for 0 mM, 3 mM, 5 mM NAC experiments are 49 s, 65 s and 107 s, respectively. The small increases in lag time for 3 mM and 5 mM treatments cannot account for the 125-325 s increases in occlusion time seen in the 3 mM and 5 mM conditions. This is instead explained by a decrease in the rapid platelet accumulation rate, defined as the slope of the platelet intensity graph (FIG. 2B). […] The slope of the platelet intensity curve decreases as NAC concentration increases, with 10 mM NAC having a negligible slope. When the RPA rate for each individual is normalized to the individual's control RPA rate, the platelet aggregation rates for 3 mM, 5 mM and 10 mM are 0.66, 0.38 and −0.12, respectively (FIG. 2D, p<0.01 compared to control for all conditions). The small negative aggregation rate for 10 mM is an artifact caused by mixing of blood and PBS at the interface between the priming solution and the sample.

[6] = system: occlusive thrombi in common carotid artery of C57 mice; assay: Murine modified-Folts model of arterial thrombosis (carotid stenosis and crush injury); format: in vivo, mouse; conditions: 200 mg/kg NAC 6 hrs prior and immediately prior to crush injury
[7] = Zhou et al. 2015; cited from earlier work
[8] = system: human whole blood; assay: Occlusion time in a stenotic microfluidic model of arterial thrombosis; format: cell-based; conditions: for Average occlusion time: 30 min incubation, shear ~7,500 s-1, untreated 124 s; for Occlusion time, weak NAC responders: 0 mM 112 s; for Occlusion time, strong NAC responders: 0 mM 136 s
Description: Microfluidic tests were run using a microfluidic system previously described (Griffin M T, et al. Inhibition of high shear arterial thrombosis by charged nanoparticles. Biomicrofluidics 2018;12). The chip contains a single inlet split into four outlet channels 475 μm wide and 250 μm tall. Within each outlet channel is a stenotic region 800 μm long where the height decreases to 70 μm. Flow is controlled using a hydraulic pressure head created by a raised reservoir connected to the inlet which generates an initial shear rate of ˜7,500 s-1 in the stenotic region. Channels are coated overnight with 100 μg/mL collagen Type I (Chrono-Log Corp) in 0.9% saline. Blood is filtered with a 37 μm nylon mesh immediately prior to testing to prevent debris from entering the chip.
as §1, §2
Blood was collected from 10 healthy adult volunteers. Subjects were recruited in accordance with Georgia Institute of Technology's Institutional Review Board Guidelines (IRB #17315). Subjects with known bleeding disorders, a history of anti-platelet medications within 10 days of donation, anemia or transmittable blood disease were excluded from the study. Standard phlebotomy techniques were used to obtain blood. Briefly, 60 mL of blood was drawn slowly through a 21 G needle into a 60 ml syringe containing 0.21 mL of a 1000 USP/mL solution of heparin sodium (Fisher Scientific) in PBS to achieve a heparin concentration of […] in the collected blood. Complete Blood Counts (CBCs) were also performed on all donor samples. All tests were run within 4 hours of the blood draw.
as §3
To test the effect of N-acetylcysteine on reducing arterial thrombosis in human blood, whole blood was perfused collected from 10 healthy human subjects through a stenotic microfluidic channel coated with type I collagen. A constant pressure head of 16 mmHg was formed using an elevated upstream reservoir to create shear rates of ˜7,500 s-1 in the stenotic region and ˜800 s-1 in the rest of the channel. […]

[9] = system: tail bleeding in mice; assay: Tail bleeding model; format: in vivo, mouse; conditions: 400 mg/kg NAC; PBS 2.35 minutes, p=0.14
Procedure: Bleeding times were assessed using the tail bleeding model described previously (Liu Y, Standardizing a simpler, more sensitive and accurate tail bleeding assay in mice. World J Exp Med. 2012;2:30). Briefly, mice were anesthetized and the distal 3 mm segment of the tail was transected and placed in a vial of warm saline. The injuries were monitored visually to determine the time it took for bleeding to cease.

[10] = system: occlusive thrombi in common carotid artery of C57 mice; assay: Murine modified-Folts model of arterial thrombosis (carotid stenosis and crush injury); format: in vivo, mouse
Procedure: Formation of occlusive thrombi was measured using a murine Modified-Folts model (Kim D A, et al. Platelet α-granules are required for occlusive high-shear-rate thrombosis. Blood Adv. 2020;4:3258-3267). C57 mice were used under conditions approved by the university animal use and care committees. Following isolation of the common carotid artery, blood flow through the vessel was measured with a flow probe (Transonic Systems). A 6.0 silk suture was then tied around the vessel and tightened until the measured flow rate was approximately 50% of the initial value. This creates a stenosis region with high shear-rate at the apex. The artery is then crushed with forceps to damage the endothelial cells and expose collagen in the extracellular matrix.
In single injection experiments, 13 mice were treated with either 200 mg/kg NAC, 400 mg/kg NAC, or PBS. 100 μL of freshly prepared, neutralized NAC solution or vehicle was I.V. injected approximately 45 minutes prior to the crush injury.
For repeat injection experiments, mice were given either PBS, 200 mg/kg, or 400 mg/kg NAC through a 100 μL I.V. injection 6 hr prior to surgery. Mice were then given a second injection of PBS, 200 mg/kg, or 400 mg/kg NAC approximately 45 minutes prior to the crush injury. Additionally, 4 mice were given a dose of 400 mg/kg NAC through an 100 μL injection 6 hr prior to the surgery, followed by a second injection of PBS immediately prior to the crush injury.
Blood flow measurements were taken with a Transonic flow probe and acquired with Powerlab software (ADInstruments) (Id.). Time to initial occlusion is defined as the time between the crush injury and the first point where flow reaches approximately 0. After occlusion, if flow remains around 0 then the occlusion is characterized as stable. If instead the thrombus detaches and flow increases, the clot is labelled an unstable occlusion.
Statistical significance in time to initial occlusion was determined using unpaired student t-test (p <0.05). Differences in thrombus stability are determined using a Pearson's Chi-squared test (p <0.05).

[11] = two doses of 400 mg/kg NAC 6 hrs apart

CC(=O)Oc1ccccc1C(=O)O [ASA]
Average bleeding time [1]: 5.72 min

VWF: VWF (Humate) added at 19 IU/mL to 10 mM NAC treated blood
Increase in lag time of recovery condition vs control (shift of control curve) ([2]; 10 mM NAC + 19 IU vWF): 76 s
Occlusive thrombus formation after VWF addition ([2]; 19 IU/mL VWF added to blood treated with 10 mM NAC): recover the ability to form rapid occlusive thrombi; also recorded: forms occlusive thrombi

CC(=O)N[C@@H](CS)C(=O)O [NAC, N-acetylcysteine]
Plasma concentration at 6 hrs, of the initial concentration [3]: < 0.05%
Oral bioavailability [4]: 4-9%
Platelet aggregation (RPA) rate normalized to the individual's control RPA rate ([5]; 3 mM NAC): 0.66
Reduction of the maximum growth rate of thrombi ([5]; 3 mM NAC): 30%
Average lag time (time to 1% of maximal platelet intensity) ([5]; 3 mM NAC, 0 mM 49 s): 65 s
Platelet aggregation (RPA) rate normalized to the individual's control RPA rate ([5]; 5 mM NAC): 0.38
Reduction of the maximum growth rate of thrombi ([5]; 5 mM NAC): 60%
Average lag time (time to 1% of maximal platelet intensity) ([5]; 5 mM NAC, 0 mM 49 s): 107 s
Visible platelet aggregation ([5]; 10 mM NAC, 1000 s of the experiment): no visible aggregation of platelets
Lag time (time to 1% of maximal platelet intensity) ([5]; 10 mM NAC, 0 mM 49 s): 910 s
Platelet aggregation (RPA) rate normalized to the individual's control RPA rate ([5]; 10 mM NAC, small negative value said to be an artifact): −0.12
Visible platelet aggregation ([5]; 20 mM NAC): no visible platelet aggregation
Visible platelet aggregation ([5]; 40 mM NAC): no visible platelet aggregation
Visible platelet aggregation ([5]; NAC concentrations over 10 mM): no visible platelet aggregation
Mice that formed no thrombi and remained patent during the entire experiment [6]: Three of the 4
Estimated elimination half-life in mouse plasma [7]: 34 min
Average occlusion time ([8]; 3 mM NAC): 255 s
Occlusion time, weak NAC responders ([8]; 3 mM NAC): 182 s
Occlusion time, strong NAC responders ([8]; 3 mM NAC): 328 s
Increase in occlusion time ([8]; 3 mM and 5 mM conditions vs control): 125 to 325 s
Average occlusion time ([8]; 5 mM NAC): 458 s
Occlusion time, weak NAC responders ([8]; 5 mM NAC): 220 s
Occlusion time, strong NAC responders ([8]; 5 mM NAC): 695 s
Samples not occluding within the time limit of the experiment ([8]; 7.5 mM NAC, 3 individuals, 1000 s window): ~64%
Occlusion outcome ([8]; 7.5 mM NAC, 1000 s window): results were mixed
Occlusion outcome ([8]; 20 mM NAC): did not occlude
Occlusion outcome ([8]; 40 mM NAC): did not occlude
Inflection point of 4-parameter logistic fit of occlusion time vs NAC dose ([8]; r^2 = 0.782): 5.6545 mM
Logistic growth rate of 4-parameter logistic fit of occlusion time ([8]; r^2 = 0.782): 0.7145
Lower asymptote of 4-parameter logistic fit of occlusion time ([8]; r^2 = 0.782): 118.5 s
Upper asymptote of 4-parameter logistic fit of occlusion time ([8]; r^2 = 0.782): 1028.4 s
Average bleeding time [9]: 2.76 min
Clot stability ([10]; 200 mg/kg NAC single injection): recanalized completely; also recorded: more likely to be unstable and recanalize
Flow after recanalization, of the initial flow ([10]; 200 mg/kg NAC single injection): ~100%
Clot stability ([10]; 400 mg/kg NAC 6 hrs prior to surgery, PBS immediately prior to crush injury): formed unstable thrombi
Occlusion ([10]; 400 mg/kg NAC I.V. single injection, N=3, 45 minutes of the experiment): no occlusion was observed; also recorded: completely prevented occlusion
Observations following administration ([10]; NAC I.V., single injection experiments): lower basal blood flow and initial labored breathing
Clot stability [10, 11]: majority forming unstable thrombi
Time to clotting [10, 11]: ≤ 10 min
Tissue at crush injury site [10, 11]: more severe tissue damage and hemorrhage

Reference: patent US20250367151A1, “ANTI-VWF THERAPEUTIC FOR PREVENTING ARTERIAL THROMBI” (GEORGIA TECH RESEARCH CORPORATION, priority 2022, published 2025)
